Each structure is given as a SMILES string.

The test system of one assay is Panc-1 cells. The assay can be described thus: Lactate production in Panc-1 cells. The format is cell-based, human. As to conditions: 1 hour incubation in serum free media. As for the experimental part:
(§1) Human pancreatic cancer cell lines (Panc-1, MiaPaca2, BXPC3, Aspc 1), human hepatoma cell line (HuH7), human gastric cancer cell lines (AGS, MKN45), human colon cancer cell line (CoCM-1), human mammary cancer cell line (MCF-7), human neuroblastoma (SH-SY5Y), human prostate cancer cells (PC3), and murine Ehrlich ascites cancer cells and mouse 3T3-L1 fibroblasts were obtained from American Type Culture Collection (Rockville, Md., USA). The cancer cells were cultured in RPMI 1640 containing 10% fetal calf serum. Cultures were maintained at 37° C. in a humidified atmosphere of 5% CO2.

A further assay concerns BXPC3. The experiment in a line: Cell proliferation / cell death assay, BXPC3. Type of assay: cell-based, human. Particulars: BXPC3, 10-100 μM. As for the experimental part: as §1
(§2) Cell proliferation assays were performed with the CellTiter 96 AQueous One Solution Cell Proliferation Assay kit according to the manufacturer's instructions (Promega, Madison, Wis., USA). Briefly, 5×10^3 cells/well in medium were placed onto 96-well plates. IGs were added to cellular cultures at final concentrations of 0, 1, 10, and 100 μM. Cultures were incubated for 3 days or 7 days and then added to 20 μL/well of CellTiter 96 AQueous One Solution Reagent, which contains a tetrazolium compound, 3-(4,5-dimethylthiazol-2-yl)-5-(3-carboxymethoxyphenyl)-2-(4-sulfophenyl)-2H-tetrazolium, an inner salt; MTS was added to the culture medium. After incubating the plate for 1 h in a CO2 incubator, absorbance at 490 nm was recorded with a 96-well plate reader.

Assay [1] deals with human mammary cancer cells (MCF-7). The experiment in a line: Cell proliferation / cell death assay, MCF-7. The format is cell-based. Particulars: MCF-7, 10-100 μM. As for the experimental part:
as §1, §2

Assay [2] concerns human prostate cancer cells (PC3). The experiment in a line: Cell proliferation / cell death assay, PC3. The format is cell-based. As to conditions: PC3, 10-100 μM. Here is the method: as §1
as §2, with “Cultures were incubated for 3 days or 7 days and then added to 20 μL/well” left out

Take `CCCCCCCCCCCCCCCC(=O)O[C@@H]1C(O)C(O)[C@H](O)C(O[C@H]2OC(CO)[C@@H](O)[C@H](O)C2N)C1O` (stereo in doubt) [IG1, 2-Amino-2-deoxy-α-D-glucopyranosyl-(1→6)-2-palmitoyl-D-myo-inositol]: in the assay with Panc-1 cells, the “lactate production (aerobic glycolysis)” value was “inhibits lactate production”. For the same compound, the “rapid cancer cell death” value (with BXPC3; in assay [1]; in assay [2]) was “rapid cancer cell death was demonstrated” in each case.

For the origin of these results see US20100197625A1, “SYNTHETIC LIPOPHILIC INOSITOL GLYCANS FOR TREATMENT OF CANCER AND GLUCOSE-METABOLISM DISORDERS” (priority 2006, published 2010).
